Data on six compounds can be found in patent publication US20260325561A1, “4'-SUBSTITUTED NUCLEOSIDES AND NUCLEOTIDES AS ANTIVIRAL AGENTS” (THE SCRIPPS RESEARCH INSTITUTE, priority 2023, published 2026).

One data set relates to HRV 14. The data set can be described thus: microbe, parasite or virus in culture. It counts as cell-based, Human Rhinovirus 14 strain 1059. Particulars: Rhinovirus B, H1-HeLa, 48 h, read-out: HRV / H1 HeLa B 14 EC50.
Data set [1] can be described thus: in vitro. The conditions noted are these: human, hepg2 cells.
A short description of data set [2]: in vitro. Particulars: human, hep2 cells.
The subject of a further data set is SARS-CoV-2. The data set can be described thus: microbe, parasite or virus in culture. It counts as cell-based, SARS-CoV-2 strain USA-WA1/2020. The conditions noted are these: Severe acute respiratory syndrome coronavirus 2, HeLa-ACE2, 24 h, read-out: SARS-CoV-2 / HeLa-ACE2 EC50.
For a further data set, the system named is DENV-2. The data set can be described thus: microbe, parasite or virus in culture. It counts as cell-based, DENV-2 16681. Particulars: Dengue virus, DENV2, HepG2, 24 h, read-out: DENV-2 / HepG2 EC50.
The subject of a further data set is RSV A2. Nature of the data set: microbe, parasite or virus in culture. The format is cell-based. The conditions noted are these: human respiratory syncytial virus, HEp-2, 72 h, read-out: RSV A2 / Hep2 EC50.
Data set [3] can be described thus: in vitro. The conditions noted are these: human, h1 hela cells.
A short description of data set [4]: in vitro. Particulars: human, hela-ace2 cells.

Turning to `CC(C)C(=O)OC[C@@]1(F)O[C@@H](n2ccc3c(N)ncnc32)[C@H](OC(=O)C(C)C)[C@@H]1OC(=O)C(C)C` [Example 47, (2S,3S,4R,5R)-5-(4-amino-7H-pyrrolo[2,3-d]pyrimidin-7-yl)-2-fluoro-2-((isobutyryloxy)methyl)tetrahydrofuran-3,4-diyl bis(2-methylpropanoate)], the EC50 in the data set with HRV 14 was 1 to 10 µM; with SARS-CoV-2, 1 to 10 µM; in the data set with DENV-2 it was less than 0.1 µM; in the data set on RSV A2, less than 0.1 µM. This compound showed a CC50 at 72 h in “in vitro [1]” of 1 to 10 µM. Besides, the CC50 in “in vitro [2]” lay within 1 to 10 µM; in the data set “in vitro [3]”, 10 to 99 µM. In “in vitro [4]”, this compound gave a CC50 at 24 h of 10 to 99 µM.

With `N#C[C@@]1(c2cnc3c(N)ncnn23)O[C@](F)(CO)[C@@H](O)[C@H]1O` [Example 51, (2R,3R,4S,5S)-2-(4-aminoimidazo[2,1-f][1,2,4]triazin-7-yl)-5-fluoro-3,4-dihydroxy-5-(hydroxymethyl)tetrahydrofuran-2-carbonitrile], the EC50 with HRV 14, in the data set on SARS-CoV-2, in the data set on DENV-2 and with RSV A2 was greater than 10 µM throughout. Also, the CC50 at 72 h in the data set “in vitro [1]” was greater than 99 µM. In addition, the CC50 in “in vitro [2]” and in the data set “in vitro [3]” was greater than 99 µM in each case. The CC50 at 24 h in “in vitro [4]” was greater than 99 µM.

For the compound `Nc1ncnc2c1cnn2[C@@H]1O[C@](F)(CO)[C@@H](O)[C@H]1O` [Example 52, (2S,3S,4R,5R)-5-(4-amino-1H-pyrazolo[3,4-d]pyrimidin-1-yl)-2-fluoro-2-(hydroxymethyl)tetrahydrofuran-3,4-diol], the EC50 in the data set with HRV 14 is 1 to 10 µM; with SARS-CoV-2, 1 to 10 µM; in the data set with DENV-2 it was 1 to 10 µM; with RSV A2, greater than 10 µM. Also, the CC50 at 72 h in “in vitro [1]” was less than 1 µM. The CC50 in the data set “in vitro [2]” and in the data set “in vitro [3]” was 1 to 10 µM throughout. The CC50 at 24 h in the data set “in vitro [4]” was in the range of 1 to 10 µM.

Consider `C[C@]1(Cl)[C@H](n2cnc3c(=O)[nH]c(N)nc32)O[C@](F)(CO)[C@H]1O` [Example 62, 2-amino-9-((2R,3R,4R,5S)-3-chloro-5-fluoro-4-hydroxy-5-(hydroxymethyl)-3-methyltetrahydrofuran-2-yl)-1,9-dihydro-6H-purin-6-one], for which the EC50 is greater than 10 µM in the data set on HRV 14, greater than 10 µM in the data set on SARS-CoV-2, 0.1 to 1 µM with DENV-2 and greater than 10 µM in the data set on RSV A2. Further, the CC50 at 72 h in “in vitro [1]” lay in the range of 10 to 99 µM. The CC50 in the data set “in vitro [2]” and in the data set “in vitro [3]” was 10 to 99 µM each time. This compound also registered a CC50 at 24 h in the data set “in vitro [4]” greater than 99 µM.

`CCOc1nc(N)nc2c1ncn2[C@@H]1O[C@](F)(COP(=O)(N[C@@H](C)C(=O)OC(C)C)Oc2ccccc2)[C@@H](O)[C@@]1(C)Cl` (stereo partly drawn) [Example 64, isopropyl ((((2S,3R,4R,5R)-5-(2-amino-6-ethoxy-9H-purin-9-yl)-4-chloro-2-fluoro-3-hydroxy-4-methyltetrahydrofuran-2-yl)methoxy)(phenoxy)phosphoryl)-L-alaninate]: the EC50 in the data set on HRV 14 was greater than 10 µM; with SARS-CoV-2, greater than 10 µM; with DENV-2, 1 to 10 µM; in the data set with RSV A2, greater than 10 µM. Further, the CC50 at 72 h in the data set “in vitro [1]” is 10 to 99 µM. For the same compound, the CC50 in “in vitro [2]” and in “in vitro [3]” was 10 to 99 µM in each case. In “in vitro [4]”, this compound gave a CC50 at 24 h of 10 to 99 µM.

As for `C[C@H](NP(=O)(OC[C@@]1(F)O[C@@](C#N)(c2cnc3c(N)ncnn23)[C@H](O)[C@@H]1O)Oc1cccc2ccccc12)C(=O)OCC(C)(C)C` (stereo partly drawn) [Example 65, neopentyl ((((2S,3S,4R,5R)-5-(4-aminoimidazo[2,1-f][1,2,4]triazin-7-yl)-5-cyano-2-fluoro-3,4-dihydroxytetrahydrofuran-2-yl)methoxy)(naphthalen-1-yloxy)phosphoryl)-L-alaninate], the EC50 with HRV 14 is greater than 10 µM; with SARS-CoV-2, 1 to 10 µM; in the data set with DENV-2 it was 1 to 10 µM; with RSV A2, greater than 10 µM. In addition, in “in vitro [1]”, the CC50 at 72 h was 1 to 10 µM. For the same compound, the CC50 in “in vitro [2]” and in the data set “in vitro [3]” was 10 to 99 µM in each case. The compound also returned a CC50 at 24 h in the data set “in vitro [4]” of 10 to 99 µM.
